Data on nine compounds can be found in patent US20200216416A1, “QUINOLINE COMPOUNDS AS INHIBITORS OF TAM AND MET KINASES” (Array BioPharma Inc., priority 2019, published 2020).

Series [1] deals with T1, MET (wt) GST-tagged recombinant human MET kinase domain (Homo sapiens, UniProt P08581).
T1 construct: GST-tagged recombinant human MET kinase domain; purchased Signal Chem
Kind of series: c-Met Enzyme Assay, wild type (LanthaScreen Eu Kinase Binding). As to conditions: averaged IC50; MET (wt) 10 nM; 60-minute incubation at 22° C.; read-out: SigChem WT IC50. The method, then:
(§1) The affinity of compound binding to wild type and mutant human MET kinases was measured using Invitrogen's LanthaScreen™ Eu Kinase Binding technology. Briefly, GST-tagged recombinant human MET kinase domain from Signal Chem (see Table 8 below for concentration in assay) was incubated with 50 nM Alexa-Fluor® Tracer 236 (Invitrogen Cat No. PR9078A) and 2 nM Europium-anti-GST (Invitrogen Cat. No. A15116) along with test compound in a buffer consisting of 25 mM HEPES, pH 7.4, 10 mM MgCl2, 0.01% Triton X-100, 1mM DTT, and 2% DMSO. Compounds were typically prepared in a three-fold serial dilution in DMSO and added to the assay to give the appropriate final concentration. After a 60-minute incubation at 22° C., the reaction was measured using a PerkinElmer EnVision multimode plate reader via TR-FRET dual wavelength detection, and the percent of control (POC) calculated using a ratiometric emission factor. […] The POC values were fit to a 4 parameter logistic curve and the IC50 value is point where the curve crosses 50 POC.
(In TR-FRET formats the signal depends on donor and acceptor labels being close together.)

Series [2] concerns the target T2, human MET kinase F1200I (Homo sapiens, UniProt P08581, F1200I).
T2 construct: GST-tagged recombinant human MET kinase domain; purchased Signal Chem
Description: c-Met Enzyme Assay, F1200I mutant. Format: binding. Particulars: averaged IC50; F1200I 2 nM; 60-minute incubation at 22° C. As for the experimental part:
as §1

Series [3] concerns the target T3, human MET kinase L1195V (Homo sapiens, UniProt P08581, L1195V).
T3 construct: GST-tagged recombinant human MET kinase domain; purchased Signal Chem
Kind of series: c-Met Enzyme Assay, L1195V mutant. Format: binding. As to conditions: averaged IC50; L1195V 10 nM; 60-minute incubation at 22° C. The method, then:
as §1

The target in series [4] is T4, human MET kinase Y1230C (Homo sapiens, UniProt P08581, Y1230C).
T4 construct: GST-tagged recombinant human MET kinase domain; purchased Signal Chem
T4 sequence (P08581 1078-1345 Y1230C): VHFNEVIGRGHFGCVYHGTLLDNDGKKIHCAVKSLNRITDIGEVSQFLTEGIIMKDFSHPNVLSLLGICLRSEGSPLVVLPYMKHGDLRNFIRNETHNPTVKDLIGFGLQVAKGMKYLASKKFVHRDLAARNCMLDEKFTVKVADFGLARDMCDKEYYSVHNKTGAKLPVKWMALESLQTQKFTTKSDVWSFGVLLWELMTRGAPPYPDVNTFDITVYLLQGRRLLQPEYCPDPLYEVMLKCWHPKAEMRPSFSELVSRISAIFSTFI
Kind of series: c-Met Enzyme Assay, Y1230C mutant. The class given is binding. As to conditions: averaged IC50; Y1230C 2 nM; 60-minute incubation at 22° C.; read-out: Y1230 C IC50. The method, then: as §1

The target in series [5] is T5, human MET kinase Y1230H (Homo sapiens, UniProt P08581, Y1230H).
T5 construct: GST-tagged recombinant human MET kinase domain; purchased Signal Chem
T5 sequence (P08581 1078-1345 Y1230H): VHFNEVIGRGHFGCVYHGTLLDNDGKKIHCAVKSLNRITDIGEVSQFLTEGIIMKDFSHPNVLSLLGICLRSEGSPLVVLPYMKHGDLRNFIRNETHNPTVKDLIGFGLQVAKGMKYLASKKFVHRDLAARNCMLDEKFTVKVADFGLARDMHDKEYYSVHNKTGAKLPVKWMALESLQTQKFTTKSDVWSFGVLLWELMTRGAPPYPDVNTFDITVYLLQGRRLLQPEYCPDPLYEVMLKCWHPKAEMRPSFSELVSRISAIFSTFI
Description: c-Met Enzyme Assay, Y1230H mutant. As to conditions: averaged IC50; Y1230H 5 nM; 60-minute incubation at 22° C.; read-out: Y1230 H IC50. Format: binding. As for the experimental part:
as §1

The target of series [6] is T6, human MET kinase Y1230S (Homo sapiens, UniProt P08581, Y1230S).
T6 construct: GST-tagged recombinant human MET kinase domain; purchased Signal Chem
T6 sequence (P08581 1078-1345 Y1230S): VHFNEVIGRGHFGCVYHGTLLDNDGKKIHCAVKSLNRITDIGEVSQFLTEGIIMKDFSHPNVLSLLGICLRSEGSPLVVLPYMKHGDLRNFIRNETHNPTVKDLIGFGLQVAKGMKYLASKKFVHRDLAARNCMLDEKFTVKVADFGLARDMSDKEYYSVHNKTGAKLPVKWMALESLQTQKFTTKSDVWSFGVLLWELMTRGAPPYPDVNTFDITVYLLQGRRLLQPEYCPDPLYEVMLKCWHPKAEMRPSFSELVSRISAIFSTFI
Kind of series: c-Met Enzyme Assay, Y1230S mutant. The class given is binding. Particulars: averaged IC50; Y1230S 8 nM; 60-minute incubation at 22° C.; read-out: Y1230 S IC50. As for the experimental part:
as §1

Series [7] concerns the target T7, MDR1 (P-gp) (Homo sapiens, UniProt P08183).
T7 construct: expressed in transfected cells; host or cells: LLC-PK1
Kind of series: MDR1 LLC-PK1 permeability assay. The class given is in vitro ADME. As to conditions: pig, MDR1 transfected LLC-PK1 cells; for Papp at 2 h, 1 μM: permeability coefficient (Papp). The method, then: MDR1 transfected LLC-PK1 cells were cultured and plated according to manufacturer's recommendations with the exception that the passage media contained only 2% fetal bovine serum to extend passage time out to seven days.
Both positive and negative controls were used to assess functionality of P-gp efflux in the assay. Stock solutions for assay controls and the test article were prepared in DMSO for final test concentrations of 10 and 1 μM, respectively. Final organic concentration in the assay was 1%. All dosing solutions contained 10 μM lucifer yellow to monitor LLC-PK1 cell monolayer integrity.
For the apical to basolateral determination (A to B), 75 μL of the test article in transport buffer were added to the apical side of the individual transwells and 250 μL of basolateral media, without compound or lucifer yellow, were added to each well. For the basolateral to apical determination (B to A), 250 μL of test article in transport buffer were added to each well and 75 μL transport buffer, without compound or lucifer yellow, were added to each transwell. All tests were performed in triplicate, and each compound was tested for both apical to basolateral and basolateral to apical transport. The plates were incubated for 2 hours on a Lab-Line Instruments Titer Orbital Shaker (VWR, West Chester, Pa.) at 50 rpm and 37° C. with 5% CO2. All culture plates were removed from the incubator and 50 μL of media were removed from the apical and basolateral portion of each well and added to 150 μL of 1 μM labetalol in 2:1 acetonitrile (acetonitrile): H2O, v/v.
The plates were read using a Molecular Devices (Sunnyvale, Calif.) Gemini Fluorometer to evaluate the lucifer yellow concentrations at excitation/emission wavelengths of 425/535 nm. These values were accepted when found to be below 2% for apical to basolateral and 5% basolateral to apical flux across the MDR1-transfected LLC-PK1-transfected cell monolayers. The plates were sealed and the contents of each well analyzed by LC-MS/MS. The compound concentrations were determined from the ratio of the peak areas of the compound to the internal standard (labetalol) in comparison to the dosing solution.
The LC-MS/MS system was comprised of an HTS-PAL autosampler (Leap Technologies, Carrboro, N.C.), an HP1200 HPLC (Agilent, Palo Alto, Calif.), and a MDS Sciex 4000 Q Trap system (Applied Biosystems, Foster City, Calif.). […] The total run time, including re-equilibration, for a single injection was 1.2 minutes. Mass spectrometric detection of the analytes was accomplished using the ion spray positive mode. Analyte responses were measured by multiple reaction monitoring (MRM) of transitions unique to each compound (the protonated precursor ion and selected product ions for each test article and m/z 329 to m/z 162 for labetalol, the internal standard).
The permeability coefficient (Papp) is calculated from the following equation: […]
where Cd, V, t and C0 are the detected concentration (μM), the volume on the dosing side (mL), the incubation time (s) and the initial dosing concentration (μM), respectively. The calculations for Papp were made for each replicate and then averaged. In this assay, a compound is defined has having high permeability if the permeability is greater than 8×10^−6 cm/sec, a compound is defined has having medium permeability if the permeability is from 2×10^−6 cm/sec to 8×10^−6 cm/sec, and a compound is defined has having low permeability if the permeability is less than 2×10^−6 cm/sec.
An efflux ratio was calculated from the mean apical to basolateral (A-B) Papp data and basolateral to apical (B-A) Papp data:
Efflux ratio=Papp(B−A)/Papp(A−B)

Setting [8] is: LLC-PK1, efflux ratio = Papp(B-A)/Papp(A-B), read-out: MDR1 Pe Ratio.
The mark [9] stands for this setting: LLC-PK1, Papp(B−A)/Papp(A−B), test article 1 μM, 2 hours, 37° C., read-out: Efflux ratio.

Read-outs that look alike come from different tables or passages of the source.

T1 sequence (P08581 1078-1345 limits assumed): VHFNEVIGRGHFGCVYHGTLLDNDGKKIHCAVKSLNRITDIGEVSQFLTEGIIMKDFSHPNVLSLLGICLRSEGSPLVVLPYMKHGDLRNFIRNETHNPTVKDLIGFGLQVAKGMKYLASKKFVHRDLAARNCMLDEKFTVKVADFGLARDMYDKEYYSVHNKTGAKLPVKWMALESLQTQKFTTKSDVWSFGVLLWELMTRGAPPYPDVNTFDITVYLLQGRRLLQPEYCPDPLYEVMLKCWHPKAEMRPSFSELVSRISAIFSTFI
T7 sequence (P08183 whole entry): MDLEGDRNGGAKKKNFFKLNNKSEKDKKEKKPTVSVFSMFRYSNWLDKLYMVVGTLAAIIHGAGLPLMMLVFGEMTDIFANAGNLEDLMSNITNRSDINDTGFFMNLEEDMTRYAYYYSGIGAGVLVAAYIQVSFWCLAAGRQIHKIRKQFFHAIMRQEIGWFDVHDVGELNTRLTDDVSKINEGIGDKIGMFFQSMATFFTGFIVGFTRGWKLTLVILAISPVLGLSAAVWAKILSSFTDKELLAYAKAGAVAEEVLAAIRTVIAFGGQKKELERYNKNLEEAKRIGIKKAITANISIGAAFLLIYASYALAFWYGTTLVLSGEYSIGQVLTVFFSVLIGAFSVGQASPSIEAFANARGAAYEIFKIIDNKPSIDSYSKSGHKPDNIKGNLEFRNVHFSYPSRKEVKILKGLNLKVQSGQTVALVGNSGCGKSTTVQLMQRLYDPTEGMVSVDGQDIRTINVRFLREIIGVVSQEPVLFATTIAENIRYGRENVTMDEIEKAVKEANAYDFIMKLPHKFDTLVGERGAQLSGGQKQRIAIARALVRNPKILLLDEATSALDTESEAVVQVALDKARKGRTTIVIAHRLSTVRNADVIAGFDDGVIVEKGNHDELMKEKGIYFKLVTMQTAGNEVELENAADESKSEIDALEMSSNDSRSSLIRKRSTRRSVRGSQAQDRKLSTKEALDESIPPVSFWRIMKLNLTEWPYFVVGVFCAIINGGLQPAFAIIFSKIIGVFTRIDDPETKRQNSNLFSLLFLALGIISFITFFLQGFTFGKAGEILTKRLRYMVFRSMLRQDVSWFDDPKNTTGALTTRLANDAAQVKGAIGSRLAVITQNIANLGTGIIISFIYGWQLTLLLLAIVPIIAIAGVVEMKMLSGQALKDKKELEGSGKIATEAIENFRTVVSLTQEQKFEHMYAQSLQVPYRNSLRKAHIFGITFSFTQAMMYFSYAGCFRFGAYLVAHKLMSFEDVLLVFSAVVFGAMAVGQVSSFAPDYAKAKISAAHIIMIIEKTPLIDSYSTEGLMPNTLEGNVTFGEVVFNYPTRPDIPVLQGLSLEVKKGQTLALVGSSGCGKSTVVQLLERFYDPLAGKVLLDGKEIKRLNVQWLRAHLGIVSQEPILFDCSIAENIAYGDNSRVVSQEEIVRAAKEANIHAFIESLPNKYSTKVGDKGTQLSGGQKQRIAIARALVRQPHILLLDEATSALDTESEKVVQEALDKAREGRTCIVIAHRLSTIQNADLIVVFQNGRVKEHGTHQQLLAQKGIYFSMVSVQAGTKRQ
T3 sequence (P08581 1078-1345 L1195V limits assumed): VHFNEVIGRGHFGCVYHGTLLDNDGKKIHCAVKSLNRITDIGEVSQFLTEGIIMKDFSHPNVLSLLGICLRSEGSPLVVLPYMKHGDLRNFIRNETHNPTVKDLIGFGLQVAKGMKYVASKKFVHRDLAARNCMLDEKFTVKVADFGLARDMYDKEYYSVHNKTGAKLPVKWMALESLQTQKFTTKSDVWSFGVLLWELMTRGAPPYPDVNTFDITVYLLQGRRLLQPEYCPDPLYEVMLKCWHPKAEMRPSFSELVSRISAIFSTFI
T2 sequence (P08581 1078-1345 F1200I limits assumed): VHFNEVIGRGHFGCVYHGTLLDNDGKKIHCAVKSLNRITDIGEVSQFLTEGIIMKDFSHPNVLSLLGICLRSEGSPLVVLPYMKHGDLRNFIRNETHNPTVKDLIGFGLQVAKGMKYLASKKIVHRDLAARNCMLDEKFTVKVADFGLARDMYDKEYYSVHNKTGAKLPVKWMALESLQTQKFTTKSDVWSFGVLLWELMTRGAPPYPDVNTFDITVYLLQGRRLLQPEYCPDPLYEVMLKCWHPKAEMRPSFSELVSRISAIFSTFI

As to `COc1cc2nccc(Oc3ccc(NC(=O)c4cn(C5CCOCC5)cc(-c5ccc(F)cc5)c4=O)nc3)c2cc1OC` [Example 12, N-(5((6,7-dimethoxyquinolin-4-yl)oxy)pyridin-2-yl)-5-(4-fluorophenyl)-4-oxo-1-(tetrahydro-2H-pyran-4-yl)-1,4-dihydropyridine-3-carboxamide], the IC50 in series [1] stood at 5.4 nM; in series [2], 7 nM; in series [3] it was 33 nM; in series [4], 5.5 nM; in series [5] it was 5.4 nM; in series [6], 4.6 nM. Also, the efflux ratio at 2 h, 1 μM in series [7] (setting [8]) turned out to be 15. The compound also returned a Papp at 2 h, 1 μM in series [7] of 13 ×10⁻⁶ cm/s.
As to `COc1cc2nccc(Oc3ccc(NC(=O)c4cn(C(C)C)c(C)c(-c5ccc(F)cc5)c4=O)nc3)c2cc1OC` [Example 27, N-(5-((6,7-dimethoxyquinolin-4yl)oxy)pyridin-2-yl)-5-(4-fluorophenyl)-1-isopropyl-6-methyl-4-oxo-1,4-dihydropyridine-3-carboxamide], the IC50 in series [1] is 1.8 nM; in series [2] it was 1.6 nM; in series [3] it was 2.9 nM; in series [4] it was 1.5 nM; in series [5], 2.3 nM; in series [6] it was 1.1 nM. The efflux ratio at 2 h, 1 μM in series [7] (setting [8]) stood at 5.5. For the same compound, the Papp at 2 h, 1 μM in series [7] was 16 ×10⁻⁶ cm/s.
Turning to `COc1ccc(-c2cn(C(C)C)cc(C(=O)Nc3ccc(Oc4ccnc5cc(OC)c(OC)cc45)cn3)c2=O)c(F)c1` [Example 31, N-(5-((6,7-dimethoxyquinolin-4yl)oxy)pyridin-2-yl)-5-(2-fluoro-4-methoxyphenyl)-1-isopropyl-4-oxo-1,4-dihydropyridine-3-carboxamide], the IC50 in series [1] is 41 nM; in series [2], 46.5 nM; in series [3] it was 59.1 nM; in series [4], 69.3 nM; in series [5], 98.2 nM; in series [6] it was 72.1 nM. Also, the efflux ratio at 2 h, 1 μM in series [7] (setting [9]) came to 3.5; in series [7] (setting [8]), 2. The same compound returned a Papp at 2 h, 1 μM in series [7] of 11 ×10⁻⁶ cm/s.
In the case of `COc1cc2nccc(Oc3ccc(NC(=O)c4cn(CC(=O)N5CCOCC5)cc(-c5ccc(F)cc5F)c4=O)nc3)c2cc1OC` [Example 15, 5-(2,4-difluorophenyl)-N-(5-((6,7-dimethoxyquinolin-4-yl)oxy)pyridin-2-yl)-1-(2-morpholino-2-oxoethyl)-4-oxo-1,4-dihydropyridine-3-carboxamide], the IC50 in series [1] turned out to be 33.8 nM; in series [2] it was 24.4 nM; in series [3], 61.4 nM; in series [4] it was 66.8 nM; in series [5] it was 37.5 nM; in series [6], 53.3 nM. Besides, the efflux ratio at 2 h, 1 μM in series [7] (setting [8]) amounted to 135. Besides, the Papp at 2 h, 1 μM in series [7] was 2 ×10⁻⁶ cm/s.
Consider `COc1cc2nccc(Oc3ccc(NC(=O)c4cn(C(C)C)cc(-c5ccc(F)c(F)c5)c4=O)nc3)c2cc1OC` [Example 6], for which the IC50 in series [1] turned out to be 8.8 nM; in series [2], 8.1 nM; in series [3] it was 62.1 nM; in series [4], 12.4 nM; in series [5] it was 24.2 nM; in series [6], 11.9 nM. Also, the efflux ratio at 2 h, 1 μM in series [7] (setting [8]) is 4.9. In addition, the Papp at 2 h, 1 μM in series [7] came to 7 ×10⁻⁶ cm/s.
Take `CCc1c(-c2ccc(F)cc2)c(=O)c(C(=O)Nc2ccc(Oc3ccnc4cc(OC)c(OC)cc34)cn2)cn1C(C)C` [Example 29, N-(5-((6,7-dimethoxyquinolin-4yl)oxy)pyridin-2-yl)-6-ethyl-5-(4-fluorophenyl)-1-isopropyl-4-oxo-1,4-dihydropyridine-3-carboxamide]: the IC50 in series [1] came to 4.3 nM; in series [2], 3.2 nM; in series [3], 5.1 nM; in series [4] it was 2.6 nM; in series [5], 4.2 nM; in series [6], 1.5 nM. For the same compound, the efflux ratio at 2 h, 1 μM in series [7] (setting [8]) stood at 3.6. In series [7], this compound showed a Papp at 2 h, 1 μM of 10 ×10⁻⁶ cm/s.
For the compound `COc1cc2nccc(Oc3ccc(NC(=O)c4cn(CC(=O)N(C)C)cc(-c5ccc(Cl)cc5)c4=O)nc3)c2cc1OC` [Example 25], the IC50 worked out at 8.2 nM in series [1]; 11.5 nM in series [2]; 18.7 nM in series [3]; 10.4 nM in series [4]; 21.2 nM in series [5]; 8 nM in series [6]. The efflux ratio at 2 h, 1 μM in series [7] (setting [8]) amounted to 136. The compound further registered a Papp at 2 h, 1 μM in series [7] of 6.4 ×10⁻⁶ cm/s.
Regarding `CCCn1cc(C(=O)Nc2ccc(Oc3ccnc4cc(OC)c(OC)cc34)cn2)c(=O)c(-c2ccc(F)cc2)c1` [Example 10, N-(5((6,7-dimethoxyquinolin-4-yl)oxy)pyridin-2-yl)-5-(4-fluorophenyl)-4-oxo-1-propyl-1,4-dihydropyridine-3-carboxamide], the half-inhibitory concentration (IC50) in series [1] is 3.6 nM; in series [2] it was 4.2 nM; in series [3] it was 9.7 nM; in series [4], 3.1 nM; in series [5], 6.1 nM; in series [6], 2.8 nM. In addition, the efflux ratio at 2 h, 1 μM in series [7] (setting [8]) turned out to be 2.7. Besides, the Papp at 2 h, 1 μM in series [7] came to 7 ×10⁻⁶ cm/s.
For `CCOc1ccc2nccc(Oc3ccc(NC(=O)c4cn(C(C)C)cc(-c5ccc(F)cc5)c4=O)nc3)c2c1` [Example 51, N-(5-((6-ethoxyquinolin-4-yl)oxy)pyridin-2-yl)-5-(4-fluorophenyl)-1-isopropyl-4-oxo-1,4-dihydropyridine-3-carboxamide], the IC50 in series [1] amounted to 22.2 nM; in series [2], 35 nM; in series [3], 495 nM; in series [4], 61.8 nM; in series [5], 200 nM; in series [6], 44 nM. Also, the efflux ratio at 2 h, 1 μM in series [7] (setting [9]) turned out to be 3.5; in series [7] (setting [8]) it was 2. This compound had a Papp at 2 h, 1 μM in series [7] of 3 ×10⁻⁶ cm/s.

As a reminder, the IC50 is the concentration that gives 50% inhibition. The Papp is a coefficient for how fast a substance crosses the barrier. Low values mean slow passage, high ones fast passage.
